The text below walks through data of US12187713B2, “Immunomodulators, compositions and methods thereof” (Betta Pharmaceuticals Co., Ltd, priority 2019, dated 2025).

As a reminder, the IC50 is the concentration needed to halve the response being measured.

The first experiment deals with PD-1/PD-L1 (Homo sapiens (Human), UniProt Q9NZQ7). Briefly: PD-1/PD-L1 Binding Assay (Alphascreen). The settings on record: numeric values. In a few lines: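 PD-1/PD-L1 binding detected by anti-6×His acceptor and streptavidin donor beads after 120 min in the dark at 25 °C. Beforehand, the two proteins were incubated 15 min at 25 °C with inhibitor at 0.015–300 nM (1% DMSO). IC50 comes from a log concentration–response curve.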
Chain of PD-1/PD-L1 (Q9NZQ7 19-238): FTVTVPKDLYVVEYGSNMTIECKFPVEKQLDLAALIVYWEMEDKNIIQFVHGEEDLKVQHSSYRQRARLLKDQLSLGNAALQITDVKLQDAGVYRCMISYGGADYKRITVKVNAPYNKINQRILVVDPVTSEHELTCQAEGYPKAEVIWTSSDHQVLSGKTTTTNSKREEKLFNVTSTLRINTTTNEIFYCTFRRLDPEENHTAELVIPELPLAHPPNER
In the case of `COC(=O)N[C@H](C(=O)N[C@H]1CCN(Cc2ccc(-c3cccc(-c4cccc(-c5nc6cc(CN7CCC[C@H]7C(=O)O)c(OC(F)F)cc6o5)c4C)c3C)cc2)C1)C(C)C` [Example 257, ((6-(difluoromethoxy)-2-(4″-(((S)-3-((S)-2-((methoxycarbonyl)amino)-3-methylbutanamido)pyrrolidin-1-yl)methyl)-2,2′-dimethyl-[1,1′:3′,1″-terphenyl]-3-yl)benzo[d]oxazol-5-yl)methyl)-L-proline], the IC50 was found to be 4.4 nM. Still for that read-out and setting: next, `Cc1c(-c2nc3cc(CN4CCC[C@H]4C(=O)O)c(OC(F)F)cc3o2)cccc1-c1cccc(-c2nc3cc(CN4CC(C)(C)C4)cnc3o2)c1C` [Example 113, ((6-(difluoromethoxy)-2-(3′-(6-((3,3-dimethylazetidin-1-yl)methyl)oxazolo[5,4-b]pyridin-2-yl)-2,2′-dimethyl-[1,1′-biphenyl]-3-yl)benzo[d]oxazol-5-yl)methyl)-L-proline]: 0.5 nM. Consider `Cc1c(-c2ccc(C3CCCN3)cc2)cccc1-c1cccc(-c2nc3cc(CN4CCC[C@H]4C(=O)O)c(OC(F)F)cc3o2)c1C` (stereo partly drawn) [Example 255, ((6-(difluoromethoxy)-2-(2,2′-dimethyl-4″- (pyrrolidin-2-yl)-[1,1′:3′,1″-terphenyl]-3-yl)benzo[d]oxazol-5-yl)methyl)-L-proline], for which the IC50 was found to be 2.3 nM.

In turn, `Cc1c(-c2ccc(CN(C)CCCN(C)C)cc2)cccc1-c1cccc(-c2nc3cc(CN4CCC[C@H]4C(=O)O)c(OC(F)F)cc3o2)c1C` [Example 226, ((6-(difluoromethoxy)-2-(4″-(((3-(dimethylamino)propyl)(methyl)amino)methyl)-2,2′-dimethyl-[1,1′:3′,1″-terphenyl]-3-yl)benzo[d]oxazol-5-yl)methyl)-L-proline] displayed an IC50 of 4.7 nM. On the same count and under the same terms, next, `Cc1c(-c2nc3cc(CN[C@H]4CCC[C@H]4O)c(OC(F)F)cc3o2)cccc1-c1cccc(-c2nc3cc(CN4CCC[C@H]4C(=O)O)c(OC(F)F)cc3o2)c1C` [Example 27, ((6-(difluoromethoxy)-2-(3′-(6-(difluoromethoxy)-5-((((1S,2R)-2-hydroxycyclopentyl)amino)methyl)benzo[d]oxazol-2-yl)-2,2′-dimethyl-[1,1′-biphenyl]-3-yl)benzo[d]oxazol-5-yl)methyl)-L-proline]: 0.66 nM. The same measure, in the same setting: under `COc1nc(OCc2cccc(-c3cccc(-c4nc5cc(CN6CCC[C@H]6C(=O)O)c(OC(F)F)cc5o4)c3C)c2C)nc(OC)c1CN1CCCC1` [Example 212, ((6-(difluoromethoxy)-2-(3′-(((4,6-dimethoxy-5-(pyrrolidin-1-ylmethyl)pyrimidin-2-yl)oxy)methyl)-2,2′-dimethyl-[1,1′-biphenyl]-3-yl)benzo[d]oxazol-5-yl)methyl)-L-proline] stands 8.4 nM; under `Cc1c(-c2ccc(CN3CCC(N(C)C)C3)cc2)cccc1-c1cccc(-c2nc3cc(CN4CCC[C@H]4C(=O)O)c(OC(F)F)cc3o2)c1C` (stereo partly drawn) [Example 228, ((6-(difluoromethoxy)-2-(4″-((3-(dimethylamino)pyrrolidin-1-yl)methyl)-2,2′-dimethyl-[1,1′:3′,1″-terphenyl]-3-yl)benzo[d]oxazol-5-yl)methyl)-L-proline], 4.3 nM. Same read-out and setting: next, `Cc1c(Nc2nccc3cc(CN4CCC(F)C4)cnc23)cccc1-c1cccc(-c2nc3cc(CN4CCC[C@H]4C(=O)O)c(OC(F)F)cc3o2)c1C` (stereo partly drawn) [Example 174, ((6-(difluoromethoxy)-2-(3′-((3-((3-fluoropyrrolidin-1-yl)methyl)-1,7-naphthyridin-8-yl)amino)-2,2′-dimethyl-[1,1′-biphenyl]-3-yl)benzo[d]oxazol-5-yl)methyl)-L-proline]: 21 nM; `Cc1c(-c2nc3c(o2)CNC3)cccc1-c1cccc(-c2nc3cc(CN4CCC[C@H]4C(=O)O)c(OC(F)F)cc3o2)c1C` [Example 202, ((6-(difluoromethoxy)-2-(3′-(5,6-dihydro-4H-pyrrolo[3,4-d]oxazol-2-yl)-2,2′-dimethyl-[1,1′-biphenyl]-3-yl)benzo[d]oxazol-5-yl)methyl)proline]: 0.37 nM; `Cc1c(-c2nc3cc(CN[C@@H]4CCC[C@@H]4O)c(OC(F)F)cc3o2)cccc1-c1cccc(-c2nc3cc(CN4CCC[C@H]4C(=O)O)c(OC(F)F)cc3o2)c1C` [Example 25, ((6-(difluoromethoxy)-2-(3′-(6-(difluoromethoxy)-5-((((1R,2S)-2-hydroxycyclopentyl)amino)methyl)benzo[d]oxazol-2-yl)-2,2′-dimethyl-[1,1′-biphenyl]-3-yl)benzo[d]oxazol-5-yl)methyl)-L-proline]: 0.3 nM.

Staying with this experiment, now noted: range symbols.
Turning to `Cc1c(-c2nc3cc(CN4CCC45COC5)ccc3o2)cccc1-c1cccc(-c2nc3cc(CN4CCC[C@H]4C(=O)O)c(OC(F)F)cc3o2)c1C` [Example 106, ((2-(3′-(5-((6-oxa-1-azaspiro[3.3]heptan-1-yl)methyl)benzo[d]oxazol-2-yl)-2,2′-dimethyl-[1,1′-biphenyl]-3-yl)-6-(difluoromethoxy)benzo[d]oxazol-5-yl)methyl)-L-proline], the IC50 was in the range of 0.1 to 5 nM. On to `Cc1c(-c2nc3cc(CN4CCC[C@H]4C(=O)O)c(OC(F)F)cc3o2)cccc1-c1cccc(-c2nc3cc(CN4CC[C@@H](CO)C4)cc(C#N)c3o2)c1C` [Example 154, ((2-(3′-(7-cyano-5-(((R)-3-(hydroxymethyl)pyrrolidin-1-yl)methyl)benzo [d]oxazol-2-yl)-2,2′-dimethyl-[1,1′-biphenyl]-3-yl)-6-(difluoromethoxy)benzo[d]oxazol-5-yl)methyl)-L-proline], for which the IC50 lay within 5 to 50 nM. On the same count and under the same terms, next, `Cc1c(-c2ccc(CN3CCCC3)c(=O)[nH]2)cccc1-c1cccc(-c2nc3cc(CN4CCC[C@H]4C(=O)O)c(OC(F)F)cc3o2)c1C` [Example 267, ((6-(difluoromethoxy)-2-(2,2′-dimethyl-3′-(6-oxo-5-(pyrrolidin-1-ylmethyl)-1,6-dihydropyridin-2-yl)-[1,1′-biphenyl]-3-yl)benzo[d]oxazol-5-yl)methyl)-L-proline]: 5 to 50 nM; `Cc1c(COc2cc(OCc3cccc(C#N)c3)c(CN3CCC[C@H]3C(=O)O)cc2Cl)cccc1-c1cccc(-c2nc3cc(CN4CCC[C@H]4C(=O)O)c(OC(F)F)cc3o2)c1C` [Example 211]: 0.1 to 5 nM.

As for `Cc1c(-c2nc3cc(CN4CCC[C@@H]4C(=O)O)c(OC(F)F)cc3o2)cccc1-c1cccc(-c2nc3ccc(CN4CC(C)(C)C4)cc3o2)c1Cl` [Example 111, ((2-(2′-chloro-3′-(6-((3,3-dimethylazetidin-1-yl)methyl)benzo[d]oxazol-2-yl)-2-methyl-[1,1′-biphenyl]-3-yl)-6-(difluoromethoxy)benzo[d]oxazol-5-yl)methyl)-D-proline], the IC50 was 0.1 to 5 nM. In turn, `Cc1c(-c2nc3cc(CN4CCC[C@H]4C(=O)O)c(OC(F)F)cc3o2)cccc1-c1cccc(-c2nc3cc(CN4CCC(CN(C)C)C4)cc(C#N)c3o2)c1C` (stereo partly drawn) [Example 152, ((2-(3′-(7-cyano-5-((3-((dimethylamino)methyl)pyrrolidin-1-yl)methyl)benzo [d]oxazol-2-yl)-2,2′-dimethyl-[1,1′-biphenyl]-3-yl)-6-(difluoromethoxy)benzo[d]oxazol-5-yl)methyl)-L-proline] yielded a half-maximal inhibitory concentration (IC50) of 0.1 to 5 nM. On the same count and under the same terms, under `Cc1c(-c2nc3cc(CN4CCC[C@@H]4C(=O)O)c(OC(F)F)cc3o2)cccc1-c1cccc(-c2nc3cc(CN4CC(C)(C)C4)cnc3o2)c1C` [Example 170, ((6-(difluoromethoxy)-2-(3′-(6-((3,3-dimethylazetidin-1-yl)methyl)oxazolo[5,4-b]pyridin-2-yl)-2,2′-dimethyl-[1,1′-biphenyl]-3-yl)benzo[d]oxazol-5-yl)methyl)-D-proline] stands 5 to 50 nM; under `Cc1c(-c2nc3cc(CN4CCC[C@H]4C(=O)O)c(OC(F)F)cc3o2)cccc1-c1cccc(-c2ccc(CN3CCCC3)nc2F)c1C` [Example 270, ((6-(difluoromethoxy)-2-(3′-(2-fluoro-6-(pyrrolidin-1-ylmethyl)pyridin-3-yl)-2,2′-dimethyl-[1,1′-biphenyl]-3-yl)benzo[d]oxazol-5-yl)methyl)-L-proline], 5 to 50 nM; under `Cc1c(-c2ccc(CN3CCCC3)c(OCCc3ccc(F)cc3)c2)cccc1-c1cccc(-c2nc3cc(CN4CCC[C@H]4C(=O)O)c(OC(F)F)cc3o2)c1C` [Example 249, ((6-(difluoromethoxy)-2-(3″-(4-fluorophenethoxy)-2,2′-dimethyl-4″-(pyrrolidin-1-ylmethyl)-[1,1′:3′,1″-terphenyl]-3-yl)benzo[d]oxazol-5-yl)methyl)proline], 5 to 50 nM. Still for that read-out and setting: under `Cc1c(-c2nc3cc(CN4CCC[C@H]4C(=O)O)c(OC(F)F)cc3o2)cccc1-c1cccc(-c2ccc(CNC[C@@H]3CCC(=O)N3)c(OC(F)F)c2)c1F` [Example 216, ((6-(difluoromethoxy)-2-(3″-(difluoromethoxy)-2′-fluoro-2-methyl-4″-(((((S)-5-oxopyrrolidin-2-yl)methyl)amino)methyl)-[1,1′:3′,1″- terphenyl]-3-yl)benzo[d]oxazol-5-yl)methyl)-L-proline] stands 0.1 to 5 nM; under `Cc1c(-c2nc3cc(CN4CCC[C@@H]4C(=O)O)c(OC(F)F)cc3o2)cccc1-c1cccc(-c2nc3cc(CN4CCCC4)cc(C#N)c3o2)c1C` [Example 145, ((2-(3′-(7-cyano-5-(pyrrolidin-1-ylmethyl)benzo[d]oxazol-2-yl)-2,2′-dimethyl-[1,1′-biphenyl]-3-yl)-6-(difluoromethoxy)benzo[d]oxazol-5-yl)methyl)-D-proline], 0.1 to 5 nM; under `Cc1c(-c2nc3c(o2)CCN(CCS(C)(=O)=O)C3)cccc1-c1cccc(-c2nc3cc(CN4CCC[C@H]4C(=O)O)c(OC(F)F)cc3o2)c1C` [Example 185, ((6-(difluoromethoxy)-2-(2,2′-dimethyl-3′-(5-(2-(methylsulfonyl)ethyl)-4,5,6,7-tetrahydrooxazolo[4,5-c]pyridin-2-yl)-[1,1′-biphenyl]-3-yl)benzo[d]oxazol-5-yl)methyl)-L-proline], 0.1 to 5 nM.
